Measurements published in ChEMBL document CHEMBL5576134, “Targeting Pancreatic Cancer with Novel Nicolaioidesin C Derivatives: Molecular Mechanism, In Vitro, and In Vivo Evaluations” (J Med Chem, 2024).
Activity calls are given as the source filed them. No cut-off for these calls is given here.

Assays:
MIA PaCa-2 [1] = experiment: Preferential cytotoxicity against human MIA PaCa-2 cells in DMEM measured after 24 hrs by WST-8 cell counting analysis; format: functional, cell-based; details: MIA PaCa-2, 24 h
[2] = Selectivity index, ratio of IC50 for preferential cytotoxicity against human PANC-1 cells in DMEM to PC50 for preferential cytotoxicity against human PANC-1 cells in nutrient-deprived medium; format: functional
PANC-1 [3] = experiment: Preferential cytotoxicity against human PANC-1 cells in nutrient-deprived medium measured after 24 hrs by WST-8 cell counting analysis; format: functional
MIA PaCa-2 [4] = experiment: Preferential cytotoxicity against human MIA PaCa-2 cells in nutrient-deprived medium measured after 24 hrs by WST-8 cell counting analysis; format: functional
[5] = Selectivity index, ratio of IC50 for preferential cytotoxicity against human MIA PaCa-2 cells in DMEM to PC50 for preferential cytotoxicity against human MIA PaCa-2 cells in nutrient-deprived medium; format: functional
PANC-1 [6] = experiment: Preferential cytotoxicity against human PANC-1 cells in DMEM measured after 24 hrs by WST-8 cell counting analysis; format: functional, cell-based; details: PANC-1, 24 h
MIA PaCa-2 [7] = experiment: Antitumor activity against human MIA PaCa-2 cells xenografted in BALB/c/Nu/Nu mouse assessed as reduction in final tumor weight at 60 mg/kg, ip administered 5 times a week for 4 weeks (reference value: […]); format: functional
MIA PaCa-2 [8] = experiment: Antitumor activity against human MIA PaCa-2 cells xenografted in BALB/c/Nu/Nu mouse assessed as reduction in number of blood vessels in skin at 60 mg/kg, ip administered 5 times a week for 4 weeks; format: functional, organism-based
MIA PaCa-2 [9] = experiment: Antitumor activity against human MIA PaCa-2 cells xenografted in BALB/c/Nu/Nu mouse assessed as tumor volume at 60 mg/kg, ip administered 5 times a week for 4 weeks and measured on day 32 (reference value: 1417 mm3); format: functional; details: time 32 day
[10] = Toxicity in BALB/c/Nu/Nu mouse xenografted with human MIA PaCa-2 cells assessed as change in body weight at 60 mg/kg, ip administered 5 times a week for 4 weeks; format: organism-based; details: in vivo, 672 h

Row | SMILES | IC50 (MIA PaCa-2 [1]) [µM] | Selectivity Index [2] | PC50 (PANC-1 [3]) [µM] | PC50 (MIA PaCa-2 [4]) [µM] | Selectivity Index [5] | IC50 (PANC-1 [6]) [µM] | Activity (MIA PaCa-2 [7]) [mg] | Activity (MIA PaCa-2 [8]) | Activity (MIA PaCa-2 [9]) [mm3] | Activity [10]
1 | COc1cc(O)c(C(=O)[C@H]2CC=C(CCC=C(C)C)C[C@@H]2c2ccccc2F)c(O)c1 (relative stereo) | 33.7 | 39.3 | 0.72 | 0.85 | 39.6 | 28.5 |  |  |  | 
2 | COc1cc(O)c(C(=O)[C@H]2CC=C(CCC=C(C)C)C[C@@H]2c2cccc(F)c2F)c(O)c1 (relative stereo) | 33.8 | 38 | 0.64 | 1.01 | 33.4 | 24.4 |  |  |  | 
3 | COc1cc(O)c(C(=O)[C@H]2CC=C(CCC=C(C)C)C[C@@H]2c2cc(F)cc(F)c2)c(O)c1 | 17.9 | 18.6 | 0.73 | 0.79 | 22.6 | 13.5 |  |  |  | 
4 | COc1ccc(C(=O)[C@H]2CC=C(CCC=C(C)C)C[C@@H]2c2ccccc2)c(O)c1 (relative stereo) | > 100 | 3.3 | 7.32 | 59.3 |  | 24.2 |  |  |  | 
5 | COc1cc(O)c(C(=O)[C@H]2CC=C(CCC=C(C)C)C[C@@H]2c2ccc(F)cc2)c(O)c1 (relative stereo) | > 100 |  | 0.39 | 1.01 |  | > 100 |  |  |  | 
6 | CC(C)=CCCC1=CC[C@H](C(=O)c2c(O)cccc2O)[C@@H](c2cccc(F)c2)C1 (relative stereo) | 30.8 | 11.2 | 1.43 | 1.23 | 25.1 | 16 |  |  |  | 
7 | Nc1ccn([C@@H]2O[C@H](CO)[C@@H](O)C2(F)F)c(=O)n1 [GEMCITABINE] |  |  |  |  |  |  | 227 | Active | 632 | Non-Toxic
8 | COc1cc(O)c(C(=O)[C@H]2CC=C(CCC=C(C)C)C[C@@H]2c2cccc(F)c2)c(O)c1 (relative stereo) | 39.9 | 25.6 | 1.16 | 1.21 | 32.9 | 29.6 |  |  |  | 
9 | COc1cccc(O)c1C(=O)[C@H]1CC=C(CCC=C(C)C)C[C@@H]1c1ccccc1 | > 100 | 10.3 | 3.3 | 31.8 |  | 33.9 |  |  |  | 
10 | COc1ccc([C@H]2CC(CCC=C(C)C)=CC[C@@H]2C(=O)c2c(O)cccc2O)cc1 (relative stereo) | > 100 | 52.8 | 1.08 | 4.73 |  | 56.7 |  |  |  | 
11 | COc1cc(O)c(C(=O)[C@H]2CC=C(CCC=C(C)C)C[C@@H]2c2ccccc2)c(O)c1 | 61.4 | 46.3 | 0.55 | 2.76 | 22.3 | 25.3 |  |  |  | 
12 | CC(C)=CCCC1=CC[C@H](C(=O)c2c(O)cccc2O)[C@@H](c2c(F)cccc2F)C1 (single isomer, unassigned) | 28.7 | 16.1 | 1.34 | 1.52 | 18.9 | 21.6 |  |  |  | 
13 | COc1cc(O)c(C(=O)[C@H]2CC=C(CCC=C(C)C)C[C@@H]2c2ccc(C)cc2)c(O)c1 (relative stereo) | 93.3 |  | 0.56 | 3.65 | 25.5 | > 100 |  |  |  | 
14 | COc1cc(O)c(C(=O)[C@H]2CC=C(CCC=C(C)C)C[C@@H]2c2ccc(F)cc2F)c(O)c1 (relative stereo) | 20.2 | 21.6 | 0.97 | 0.63 | 32 | 21 |  |  |  | 
15 | CC(C)=CCCC1=CC[C@H](C(=O)c2c(O)cccc2O)[C@@H](c2ccccc2Cl)C1 (relative stereo) | 29 | 22.2 | 0.69 | 1.08 | 26.7 | 15.4 |  |  |  | 
16 | CC(C)=CCCC1=CC[C@H](C(=O)c2c(O)cccc2O)[C@@H](c2ccc(F)c(F)c2)C1 (relative stereo) | 23.1 | 33.5 | 0.33 | 0.68 | 33.8 | 11 |  |  |  | 
